Data on twelve compounds can be found in patent publication US5811454A (priority 1993, dated 1998).

Structures are written as SMILES. “Also recorded” adds a separate entry of the source. Read-outs that look alike come from different tables or passages of the source.

The conditions of data set [1]: ph stat, naoh titration.
Data set [2] has as its system colorectal cell line LS174T. Put plainly: cells. Conditions: Homo sapiens, 1 h.
In another data set the target is CPG2 (Pseudomonas sp., UniProt P06621). The class given is biochemical, bacterial.
Data set [3] concerns colorectal cell line LS174T.

CPG2, sequence (P06621 23-415): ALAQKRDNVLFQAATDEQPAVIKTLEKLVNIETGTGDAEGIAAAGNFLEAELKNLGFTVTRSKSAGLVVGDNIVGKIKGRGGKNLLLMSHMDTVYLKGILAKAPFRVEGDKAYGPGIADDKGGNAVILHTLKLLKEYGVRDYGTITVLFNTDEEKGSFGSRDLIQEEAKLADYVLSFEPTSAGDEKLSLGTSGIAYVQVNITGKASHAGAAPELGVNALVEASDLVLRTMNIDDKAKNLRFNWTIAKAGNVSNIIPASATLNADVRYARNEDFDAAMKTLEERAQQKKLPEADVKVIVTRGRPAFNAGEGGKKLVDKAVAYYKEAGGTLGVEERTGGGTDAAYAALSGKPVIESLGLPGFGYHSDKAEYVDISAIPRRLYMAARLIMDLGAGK

The IC50 is the concentration that gives 50% inhibition. For the compound `CS(=O)(=O)OCCN(CCOS(C)(=O)=O)c1ccc(C(=O)O)cc1F` [Compound 22], the “Active Drug t1/2 (chemical half-life)” value in data set [1] stood at 1.9 min. For the same compound, the IC50 in data set [2] (read-out: Active Drug IC50) amounted to 480 µM.

On to `CS(=O)(=O)OCCN(CCCl)c1ccc(C(=O)O)c(F)c1` [Compound 11], for which, in data set [1], the “Active Drug t1/2 (chemical half-life)” value amounted to 192 min. Further, the IC50 in data set [2] (read-out: Active Drug IC50) was > 800 µM.

Take `CS(=O)(=O)OCCN(CCCl)c1ccc(C(=O)N[C@@H](CCC(=O)O)C(=O)O)cc1F` [Compound 20, 3-fluoro, 4-[(2-chloroethyl)[2-(mesyloxy)ethyl]amino]benzoyl-L-glutamic acid]: the “Ability of prodrug to act as CPG2 substrate (in words)” value (“Ability of prodrug to act” for short) at CPG2 is reported as “good substrates”. Further, in data set [1], the “Prodrug t1/2 (chemical half-life)” value was 122 min. The IC50 in data set [2] (read-out: Prodrug + CPG2 IC50) is 350 µM; in data set [2] (read-out: Prodrug IC50) it was > 800 µM.

Consider `CS(=O)(=O)OCCN(CCCl)c1ccc(C(=O)O)cc1` [Compound 29, reference compound], for which the “Active Drug t1/2 (chemical half-life)” value in data set [1] was found to be 58 min. The IC50 in data set [2] (read-out: Active Drug IC50) was determined as 185 µM.

With `CS(=O)(=O)OCCN(CCOS(C)(=O)=O)c1ccc(C(=O)N[C@@H](CCC(=O)O)C(=O)O)cc1F` [Compound 19], the “Ability of prodrug to act” value on CPG2 is on record as “good substrates”. Besides, the IC50 is 480 µM in data set [2] (read-out: Prodrug + CPG2 IC50) and > 800 µM in data set [2] (read-out: Prodrug IC50).

`CS(=O)(=O)OCCN(CCCl)c1ccc(C(=O)O)cc1F` [Compound 23]: the “Active Drug t1/2 (chemical half-life)” value in data set [1] is given as 2.4 min. Besides, the IC50 in data set [2] (read-out: Active Drug IC50) came out at 280 µM.

`CS(=O)(=O)OCCN(CCCl)c1ccc(C(=O)N[C@@H](CCC(=O)O)C(=O)O)c(F)c1` [Compound 8, 2-fluoro, 4-[(2-chloroethyl)[2-(mesyloxy)ethyl]amino]benzoyl-L-glutamic acid]: the “Ability of prodrug to act” value at CPG2 was “good substrates”. Also, the IC50 in data set [2] (read-out: Prodrug + CPG2 IC50) and in data set [2] (read-out: Prodrug IC50) was > 800 µM in each case.

As for `CS(=O)(=O)OCCN(CCOS(C)(=O)=O)c1ccc(C(=O)N[C@@H](CCC(=O)O)C(=O)O)cc1` [Compound 25, reference compound], in data set [1], the “Prodrug t1/2 (chemical half-life)” value is given as 42 min.

Take `CS(=O)(=O)OCCN(CCCl)c1ccc(C(=O)N[C@@H](CCC(=O)O)C(=O)O)cc1` [Compound 26, 4[(2chloroethyl)[2(mesyloxy)ethyl]amino]benzoylL-glutamic acid, reference compound]: in data set [1], the “Prodrug t1/2 (chemical half-life)” value was 984 min. Besides, the “Prodrug activity (increased cytotoxicity on conversion by CPG2)” value in data set [3] was “substantial prodrug activity”. For the same compound, the figures for the IC50 in data set [2] (read-out: Prodrug + CPG2 IC50) and in data set [2] (read-out: Prodrug IC50) were 200 µM and > 800 µM, respectively.

As for `O=C(O)CC[C@H](NC(=O)c1ccc(N(CCCl)CCCl)cc1F)C(=O)O` [Compound 9, 2-fluoro, 4-[bis(2-chloroethyl)amino]benzoyl-L-glutamic acid], on CPG2, the “Ability of prodrug to act” value is “good substrates” and the kcat is listed as 462 S^-1. For the same compound, the IC50 in data set [3] (read-out: Prodrug + CPG2 IC50) was > 800 µM. Moreover, in data set [3] (read-out: Prodrug IC50), the concentration for half-maximal inhibition (IC50) was > 800 µM.

`CS(=O)(=O)OCCN(CCOS(C)(=O)=O)c1ccc(C(=O)N[C@@H](CCC(=O)O)C(=O)O)c(F)c1` [Compound 7, 2-fluoro, 4-[bis-[2-(mesyloxy)ethyl]amino]benzoyl-L-glutamic acid]: at CPG2, the “Ability of prodrug to act” value was “such a poor substrate that it was not possible to measure its kinetics; also recorded: very poor substrate”. Also, the IC50 in data set [2] (read-out: Prodrug + CPG2 IC50) and in data set [2] (read-out: Prodrug IC50) was > 800 µM each time.

In the case of `O=C(O)CC[C@H](NC(=O)c1ccc(N(CCCl)CCCl)c(F)c1)C(=O)O` [Compound 21, 3-fluoro, 4-[bis(2-chloroethyl) ,amino] benzoyl-L-glutamic acid], the “Ability of prodrug to act” value on CPG2 is “good substrates”. Besides, the kcat at CPG2 turned out to be 1028 S^-1. The IC50 in data set [3] (read-out: Prodrug + CPG2 IC50) was 390 µM; in data set [3] (read-out: Prodrug IC50) it was > 800 µM.
